Square brackets hold non-standard residues; d marks the D form. Peptide text beside a SMILES is read from it. * marks the point of attachment. ξ: configuration not given here. ξF = NC(Cc1ccccc1)C(=O)O; Boc = CC(C)(C)OC(=O)*; CF3 = FC(F)(F)*
What was measured:
Cathepsin G = biological target: T1, Cathepsin G (Homo sapiens, UniProt P08311); test: The compound was tested for its potency to inhibit human Cathepsin G
T1 sequence (P08311 whole entry): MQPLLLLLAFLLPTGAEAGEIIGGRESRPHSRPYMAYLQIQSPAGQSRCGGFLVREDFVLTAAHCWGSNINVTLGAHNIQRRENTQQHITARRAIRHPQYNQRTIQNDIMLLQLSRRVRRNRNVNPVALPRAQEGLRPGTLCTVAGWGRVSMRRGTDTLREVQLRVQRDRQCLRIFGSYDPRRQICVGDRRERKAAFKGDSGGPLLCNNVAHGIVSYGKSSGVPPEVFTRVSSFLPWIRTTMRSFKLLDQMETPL

Neutrophil elastase = biological target: T2, Neutrophil elastase (Homo sapiens, UniProt P08246); test: The compound was tested for its potency to inhibit human neutrophil elastase activity
T2 sequence (P08246 whole entry): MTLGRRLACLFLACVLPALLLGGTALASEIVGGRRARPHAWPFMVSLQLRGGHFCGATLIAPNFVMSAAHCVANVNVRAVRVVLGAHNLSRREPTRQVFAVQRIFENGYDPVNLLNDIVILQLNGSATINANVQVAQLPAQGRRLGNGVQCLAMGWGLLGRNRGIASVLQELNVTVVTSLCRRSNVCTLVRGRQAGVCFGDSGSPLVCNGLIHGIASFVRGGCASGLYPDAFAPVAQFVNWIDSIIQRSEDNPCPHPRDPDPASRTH

Chymotrypsinogen A = Chymotrypsinogen A (Bos taurus, UniProt P00766); test: The compound was tested for its potency to inhibit alpha-Chymotrypsin

SMILES | Ki (Cathepsin G) | Ki (Neutrophil elastase) | Ki (Chymotrypsinogen A)
CC(C)C(NC(=O)[C@@H]1CCCN1C(=O)[C@@H](NC(=O)c1ccc(C(=O)NC(Cc2ccccc2)C(=O)C(F)(F)F)cc1)C(C)C)C(=O)C(F)(F)C(F)(F)F (some centres not stated) | > 1000 µM | 0.004 µM | 1.2 µM
CC(C)C(NC(=O)[C@@H]1CCCN1C(=O)[C@@H](NC(=O)OC(C)(C)C)C(C)C)C(=O)C(F)(F)C(F)(F)F (some centres not stated) | – | 0.055 µM | –
CC(C)C(NC(=O)[C@@H]1CCCN1C(=O)[C@@H](NC(=O)c1ccc(C(=O)N[C@@H](C(=O)N2CCC[C@@H]2C(=O)NC(Cc2ccccc2)C(=O)C(F)(F)F)C(C)C)cc1)C(C)C)C(=O)C(F)(F)C(F)(F)F (some centres not stated) | 2.2 µM | 0.0159 µM | –
CC(C)[C@H](NC(=O)OC(C)(C)C)C(=O)N1CCC[C@H]1C(=O)NC(Cc1ccccc1)C(=O)C(F)(F)F (stereo partly drawn) (Boc-Val-Pro-[ξF]-CF3) | 1.7 µM | – | –

— ChEMBL document CHEMBL1127203, “Janus compounds: dual inhibitors of proteinases” (Bioorg Med Chem Lett, 1993)
